Reference: patent US10005774B2, “Syk inhibitors” (Gilead Sciences, Inc., priority 2013, dated 2018)
Like-named read-outs stand apart in the source and are kept apart here.

Molecular target: Syk (Homo sapiens, UniProt P43405)
Experiment: High Throughput Syk Biochemical Assay (KinEASE TR-FRET)
Settings: 20 μM ATP, 1 μM biotinylated peptide, 0.015 nM Syk, 30 min at room temperature
Method in brief: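 Compounds in DMSO dilution series were tested against Syk, which phosphorylates an XL665-tagged peptide. The phosphoproduct was bound by Eu-labelled phosphotyrosine antibody in a two-step endpoint format.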

[1] = table 'ALL NEW COMPOUNDS IN 2014', read-out: Syk IC50

Row | IC50 [1] | IC50 (TABLE D, read-out: IC50) | SMILES
1 |  | 1.59 nM | CC(=O)N1CCN(c2ccc(-c3cc(O[C@H](C)[C@H]4CNC(=O)C4)c4scnc4c3)nc2)CC1 (stereo in doubt) [(R)-4-((R)-1-((5-(5-(4-acetylpiperazin-1-yl)pyridin-2-yl)benzo[d]thiazol-7-yl)oxy)ethyl)pyrrolidin-2-one]
2 | 12.5 nM |  | C[C@@H](Oc1nc(-c2ccccc2)cc2ncn(C3CC3)c12)[C@H]1CNC(=O)C1
3 | 1.41 nM |  | Cc1nc(-c2cc(O[C@H](C)[C@H]3CNC(=O)C3)c3c(c2)ncn3C2CC2)sc1C [(R)-4-((R)-1-((1-cyclopropyl-5-(4,5-dimethylthiazol-2-yl)-1H-benzo[d]imidazol-7-yl)oxy)ethyl)pyrrolidin-2-one]
4 |  | 70 nM | COc1ccc(-c2cc(O[C@H](C)[C@H]3CNC(=O)C3)c3sc(C)nc3c2)cc1OC [(R)-4-((R)-1-((5-(3,4-dimethoxyphenyl)-2-methylbenzo[d]thiazol-7-yl)oxy)ethyl)pyrrolidin-2-one]
5 |  | 186 nM | COC[C@@H](Oc1nc(-c2cnn(C(C)(C)C)c2)cc2ncn(C)c12)[C@H]1CNC(=O)C1 [(R)-4-((S)-1-(6-(1-tert-butyl-1H-pyrazol-4-yl)-3-methyl-3H-imidazo[4,5-c]pyridin-4-yloxy)-2-methoxyethyl)pyrrolidin-2-one]
6 |  | 9.04 nM | C[C@@H](Oc1cc(-c2ccc(N3CCN(C(=O)OC(C)(C)C)CC3)cc2)cc2ncsc12)[C@H]1CNC(=O)C1 (stereo in doubt) [tert-butyl 4-(4-(7-((R)-1-((R)-5-oxopyrrolidin-3-yl)ethoxy)benzo[d]thiazol-5-yl)phenyl)piperazine-1-carboxylate]
7 | 3.46 nM |  | Cc1nn(C)c2ccc(-c3cc4ncn(C5CC5)c4c(O[C@H](C)[C@H]4CNC(=O)C4)n3)cc12 [(R)-4-((R)-1-((3-cyclopropyl-6-(1,3-dimethyl-1H-indazol-5-yl)-3H-imidazo[4,5-c]pyridin-4-yl)oxy)ethyl)pyrrolidin-2-one]
8 | 8.43 nM |  | C[C@@H](Oc1cc(-c2cccc(N)n2)cc2ncn(C3CC3)c12)[C@H]1CNC(=O)C1 [(R)-4-((R)-1-((5-(6-aminopyridin-2-yl)-1-cyclopropyl-1H-benzo[d]imidazol-7-yl)oxy)ethyl)pyrrolidin-2-one]
9 | 9.4 nM |  | C[C@@H](Oc1cc(-c2nccs2)cc2ncn(C3CC3)c12)[C@H]1CNC(=O)C1 [(R)-4-((R)-1-((1-cyclopropyl-5-(thiazol-2-yl)-1H-benzo[d]imidazol-7-yl)oxy)ethyl)pyrrolidin-2-one]
10 |  | 1.07 nM | COc1ccc(-c2cc(O[C@H](C)[C@H]3CNC(=O)C3)c3c(Cl)cnn3c2)cc1OC [(R)-4-((R)-1-((3-chloro-6-(3,4-dimethoxyphenyl)pyrazolo[1,5-a]pyridin-4-yl)oxy)ethyl)pyrrolidin-2-one]
11 | 1.81 nM |  | C[C@@H](Oc1nc(-c2ccc3c(cnn3CC(F)F)c2)cc2ncn(C3CC3)c12)[C@H]1CNC(=O)C1 [(R)-4-((R)-1-((3-cyclopropyl-6-(1-(2,2-difluoroethyl)-1H-indazol-5-yl)-3H-imidazo[4,5-c]pyridin-4-yl)oxy)ethyl)pyrrolidin-2-one]
12 |  | 32.8 nM | C[C@@H](Oc1nc(-c2cnn(C(F)F)c2)cc2ncn(C)c12)[C@H]1CNC(=O)C1 [(R)-4-((R)-1-(6-(1-(difluoromethyl)-1H-pyrazol-4-yl)-3-methyl-3H-imidazo[4,5-c]pyridin-4-yloxy)ethyl)pyrrolidin-2-one]

More lines, now with the values behind:

Row | SMILES | IC50 [1] | IC50 (TABLE D, read-out: IC50)
13 | C[C@@H](Oc1nc(-c2ccnc(C3C=NN=C3)c2)cc2ncn(C3CC3)c12)[C@H]1CNC(=O)C1 [(R)-4-((R)-1-((6-(2-(1H-pyrazol-4-yl)pyridin-4-yl)-3-cyclopropyl-3H-imidazo[4,5-c]pyridin-4-yl)oxy)ethyl)pyrrolidin-2-one] | 8.44 nM | 
14 | C[C@@H](Oc1nc(-c2ccc(S(=O)(=O)N(C)C)cc2)cc2ncn(C)c12)[C@H]1CNC(=O)C1 [N,N-dimethyl-4-(3-methyl-4-((R)-1-((R)-5-oxopyrrolidin-3-yl)ethoxy)-3H-imidazo[4,5-c]pyridin-6-yl)benzenesulfonamide] |  | 13.4 nM
15 | C[C@@H](Oc1cc(-c2ccc(N3CCOCC3)cn2)cc2ncsc12)[C@H]1CNC(=O)C1 (stereo in doubt) [(R)-4-((R)-1-((5-(5-morpholinopyridin-2-yl)benzo[d]thiazol-7-yl)oxy)ethyl)pyrrolidin-2-one] |  | 1.88 nM
16 | C[C@@H](Oc1nc(-c2cnn(C(C)(C)CO)c2)cc2ncn(C3CC3)c12)[C@H]1CNC(=O)C1 | 3.43 nM | 
17 | C[C@@H](Oc1nc(-c2ccc(N3CCN(S(=O)(=O)C4CC4)CC3)cc2)cc2ncn(C3CC3)c12)[C@H]1CNC(=O)C1 [(R)-4-((R)-1-((3-cyclopropyl-6-(4-(4-(cyclopropylsulfonyl)piperazin-1-yl)phenyl)-3H-imidazo[4,5-c]pyridin-4-yl)oxy)ethyl)pyrrolidin-2-one] | 1.3 nM | 
18 | COc1cc(-c2cc(O[C@H](C)[C@H]3CNC(=O)C3)c3c(c2)ncn3C2CC2)ccc1OC(F)F [(R)-4-((R)-1-((1-cyclopropyl-5-(4-(difluoromethoxy)-3-methoxyphenyl)-1H-benzo[d]imidazol-7-yl)oxy)ethyl)pyrrolidin-2-one] | 23.1 nM | 
19 | C[C@@H](Oc1nc(-c2cnc(C(C)(C)C)s2)cc2ncn(C)c12)[C@H]1CNC(=O)C1 [(R)-4-((R)-1-(6-(2-tert-butylthiazol-5-yl)-3-methyl-3H-imidazo[4,5-c]pyridin-4-yloxy)ethyl)pyrrolidin-2-one] |  | 9.73 nM
20 | Cn1cnc2cc(-c3cnn(C(C)(C)C)c3)nc(O[C@H](CF)[C@H]3CNC(=O)C3)c21 [(R)-4-((S)-1-(6-(1-tert-butyl-1H-pyrazol-4-yl)-3-methyl-3H-imidazo[4,5-c]pyridin-4-yloxy)-2-fluoroethyl)pyrrolidin-2-one] |  | 20.1 nM
21 | C[C@@H](Oc1nc(-c2ccc3scnc3c2)cc2ncn(C)c12)[C@H]1CNC(=O)C1 [(R)-4-((R)-1-((6-(benzo[d]thiazol-5-yl)-3-methyl-3H-imidazo[4,5-c]pyridin-4-yl)oxy)ethyl)pyrrolidin-2-one] |  | 30.6 nM
22 | COc1ccc(-c2cc3ncn(C(F)F)c3c(O[C@H](C)[C@H]3CNC(=O)C34CC4)n2)cc1OC [(R)-7-((R)-1-((3-(difluoromethyl)-6-(3,4-dimethoxyphenyl)-3H-imidazo[4,5-c]pyridin-4-yl)oxy)ethyl)-5-azaspiro[2.4]heptan-4-one] |  | 38 nM
23 | C[C@@H](Oc1nc(-c2ccc(N3CCN(S(=O)(=O)C4COC4)CC3)cc2)cc2ncn(C3CC3)c12)[C@H]1CNC(=O)C1 [(R)-4-((R)-1-((3-cyclopropyl-6-(4-(4-(oxetan-3-ylsulfonyl)piperazin-1-yl)phenyl)-3H-imidazo[4,5-c]pyridin-4-yl)oxy)ethyl)pyrrolidin-2-one] | 1.31 nM | 
24 | C[C@@H](Oc1nc(-c2ccc(N3CCOCC3)cc2)cc2ncn(C)c12)[C@H]1CNC(=O)C1 [(R)-4-((R)-1-(3-methyl-6-(4-morpholinophenyl)-3H-imidazo[4,5-c]pyridin-4-yloxy)ethyl)pyrrolidin-2-one] |  | 4.6 nM
25 | C[C@@H](Oc1cc(-c2ccc3c(c2)NCCO3)cc2ncn(C3CC3)c12)[C@H]1CNC(=O)C1 [(R)-4-((R)-1-((1-cyclopropyl-5-(3,4-dihydro-2H-benzo[b][1,4]oxazin-6-yl)-1H-benzo[d]imidazol-7-yl)oxy)ethyl)pyrrolidin-2-one] | 2.56 nM | 
26 | C[C@@H](Oc1cc(-c2ccc(N3CCN(C4COC4)CC3)cc2F)cc2ncn(C3CC3)c12)[C@H]1CNC(=O)C1 [(R)-4-((R)-1-((1-cyclopropyl-5-(2-fluoro-4-(4-(oxetan-3-yl)piperazin-1-yl)phenyl)-1H-benzo[d]imidazol-7-yl)oxy)ethyl)pyrrolidin-2-one] | 2.76 nM | 
27 | COc1ccc(-c2cc3ncn(CC(F)F)c3c(O[C@H](C)[C@H]3CNC(=O)C3)n2)cc1OC [(R)-4-((R)-1-(3-(2,2-difluoroethyl)-6-(3,4-dimethoxyphenyl)-3H-imidazo[4,5-c]pyridin-4-yloxy)ethyl)pyrrolidin-2-one] |  | 19.5 nM
28 | C[C@@H](Oc1cc(-c2ccc3c(c2)NCCN3C)cc2ncn(C3CC3)c12)[C@H]1CNC(=O)C1 [(R)-4-((R)-1-((1-cyclopropyl-5-(1-methyl-1,2,3,4-tetrahydroquinoxalin-6-yl)-1H-benzo[d]imidazol-7-yl)oxy)ethyl)pyrrolidin-2-one] | 3.83 nM | 
29 | C[C@@H](Oc1cc(-c2cnc(C3CCOCC3)s2)cc2ncn(C3CC3)c12)[C@H]1CNC(=O)C1 [(R)-4-((R)-1-((1-cyclopropyl-5-(2-(tetrahydro-2H-pyran-4-yl)thiazol-5-yl)-1H-benzo[d]imidazol-7-yl)oxy)ethyl)pyrrolidin-2-one] | 0.54 nM | 
30 | C[C@@H](Oc1cc(-c2cnn(C(C)(C)CO)c2)cc2ncn(C3CC3)c12)[C@H]1CNC(=O)C1 [(R)-4-((R)-1-((1-cyclopropyl-5-(1-(1-hydroxy-2-methylpropan-2-yl)-1H-pyrazol-4-yl)-1H-benzo[d]imidazol-7-yl)oxy)ethyl)pyrrolidin-2-one] | 1.99 nM | 
31 | C[C@@H](Oc1nc(-c2ccc(N3CCN(C4COC4)CC3)nc2)cc2ncn(C)c12)[C@H]1CNC(=O)C1 [(R)-4-((R)-1-((3-methyl-6-(6-(4-(oxetan-3-yl)piperazin-1-yl)pyridin-3-yl)-3H-imidazo[4,5-c]pyridin-4-yl)oxy)ethyl)pyrrolidin-2-one] | 12.4 nM | 
32 | C[C@@H](Oc1nc(-c2cnc(N3CCOCC3)s2)cc2ncn(C3CC3)c12)[C@H]1CNC(=O)C1 [(R)-4-((R)-1-((3-cyclopropyl-6-(2-morpholinothiazol-5-yl)-3H-imidazo[4,5-c]pyridin-4-yl)oxy)ethyl)pyrrolidin-2-one] | 2.13 nM | 
33 | C[C@@H](Oc1nc(-c2ccc(N3CCN(C4COC4)CC3)cc2F)cc2ncn(C3CC3)c12)[C@H]1CNC(=O)C1 [(R)-4-((R)-1-((3-cyclopropyl-6-(2-fluoro-4-(4-(oxetan-3-yl)piperazin-1-yl)phenyl)-3H-imidazo[4,5-c]pyridin-4-yl)oxy)ethyl)pyrrolidin-2-one] | 10.1 nM | 
